Assay results published in patent publication US20140187548A1, “6 SUBSTITUTED IMIDAZOPYRAZINES FOR USE AS MPS-1 AND TKK INHIBITORS IN THE TREATMENT OF HYPERPROLIFERATIVE DISORDERS” (BAYER INTELLECTUAL PROPERTY GMBH, priority 2010, published 2014).

Target: T1, human kinase Mps-1 (Homo sapiens, UniProt P33981)
T1 construct: N-terminally GST-tagged human full length recombinant Mps-1 kinase; GST (N); purchased Invitrogen, Karslruhe, Germany PV4071
T1 sequence (P33981 1-857): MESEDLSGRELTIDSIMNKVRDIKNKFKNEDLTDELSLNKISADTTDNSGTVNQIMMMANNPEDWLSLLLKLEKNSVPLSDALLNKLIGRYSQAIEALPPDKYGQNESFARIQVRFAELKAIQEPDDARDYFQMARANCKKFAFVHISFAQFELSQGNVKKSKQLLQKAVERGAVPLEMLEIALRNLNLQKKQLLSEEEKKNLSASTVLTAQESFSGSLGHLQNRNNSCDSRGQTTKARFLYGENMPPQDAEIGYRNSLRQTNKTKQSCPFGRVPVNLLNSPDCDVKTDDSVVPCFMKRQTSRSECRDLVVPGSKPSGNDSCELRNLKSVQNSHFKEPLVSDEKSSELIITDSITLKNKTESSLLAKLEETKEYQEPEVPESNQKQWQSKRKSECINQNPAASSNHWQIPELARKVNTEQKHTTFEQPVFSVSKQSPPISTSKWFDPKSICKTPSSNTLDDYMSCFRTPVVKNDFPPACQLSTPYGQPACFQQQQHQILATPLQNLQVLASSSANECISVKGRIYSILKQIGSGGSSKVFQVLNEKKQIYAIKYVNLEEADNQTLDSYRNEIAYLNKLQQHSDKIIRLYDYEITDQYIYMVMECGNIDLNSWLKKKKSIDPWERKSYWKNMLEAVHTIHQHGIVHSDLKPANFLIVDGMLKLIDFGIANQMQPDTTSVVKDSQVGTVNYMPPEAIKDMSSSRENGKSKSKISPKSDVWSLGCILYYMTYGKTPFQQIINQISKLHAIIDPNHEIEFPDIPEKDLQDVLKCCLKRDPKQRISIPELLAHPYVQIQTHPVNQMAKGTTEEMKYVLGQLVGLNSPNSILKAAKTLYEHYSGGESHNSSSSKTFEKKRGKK
Experiment: Mps-1 kinase assay (TR-FRET)
Assay type: biochemical
Conditions: N-terminally GST-tagged human full length recombinant Mps-1; 10 μM ATP; 1 μM peptide substrate; 15 min pre-incubation; 60 min at 22° C.
Description: The human kinase Mps-1 phosphorylates a biotinylated substrate peptide. Detection of the phosphorylated product is achieved by time-resolved fluorescence resonance energy transfer (TR-FRET) from Europium-labelled anti-phospho-Serine/Threonine antibody as donor to streptavidin labelled with cross-linked allophycocyanin (SA-XLent) as acceptor. Compounds are tested for their inhibition of the kinase activity.
N-terminally GST-tagged human full length recombinant Mps-1 kinase (purchased from Invitrogen, Karslruhe, Germany, cat. no PV4071) was used. As substrate for the kinase reaction a biotinylated peptide of the amino-acid sequence […] (C-terminus in amide form, purchased from Biosynthan GmbH, Berlin) was used.
The concentration of Mps-1 in the assay was adjusted to the activity of the enzyme lot and was chosen appropriate to have the assay in the linear range, typical enzyme concentrations were in the range of about 1 nM (final conc. in the 5 μl assay volume).
The resulting mixture was incubated 1 h at 22° C. to allow the binding of the phosphorylated peptide to the anti-phospho(Ser/Thr)-Europium-antibody. Subsequently the amount of phosphorylated substrate was evaluated by measurement of the resonance energy transfer from the Europium-labelled anti-phospho(Ser/Thr) antibody to the Streptavidin-XLent. Therefore, the fluorescence emissions at 620 nm and 665 nm after excitation at 350 nm was measured in a Viewlux TR-FRET reader (PerkinElmer LAS, Rodgau-Jügesheim, Germany). The “blank-corrected normalized ratio” (a Viewlux specific readout, similar to the traditional ratio of the emissions at 665 nm and at 622 nm, in which blank and Eu-donor crosstalk are subtracted from the 665 nm signal before the ratio is calculated) was taken as the measure for the amount of phosphorylated substrate.

Point of comparison: `O=C(NC1CC1)c1ccc(-c2cnc3c(NCCOCCO)nc(-c4ccccc4)cn23)cc1` [Example 2-80, N-cyclopropyl-4-(8-{[2-(2-hydroxyethoxy)ethyl]amino}-6-phenylimidazo[1,2-a]pyrazin-3-yl)benzamide], IC50 6.2 nM. Against it:
- O=C(NC1CC1)c1ccc(-c2cnc3c(NCCN4CCCCC4)nc(-c4ccccc4)cn23)cc1 [Example 2-11, N-cyclopropyl-4-(6-phenyl-8-{[2-(piperidin-1-yl)ethyl]amino}imidazo[1,2-a]pyrazin-3-yl)benzamide] — 5.1-fold higher, 31.6 nM
- O=C(NC1CC1)c1ccc(-c2cnc3c(NCCCn4ccnc4)nc(-c4ccccc4)cn23)cc1 [Example 2-71, N-cyclopropyl-4-(8-{[3-(1H-imidazol-1-yl)propyl]amino}-6-phenylimidazo[1,2-a]pyrazin-3-yl)benzamide] — 1.5-fold lower, 4.1 nM
- NC(=O)CNc1nc(-c2ccccc2)cn2c(-c3ccc(C(=O)NC4CC4)cc3)cnc12 [Example 2-30, 4-{8-[(2-amino-2-oxoethyl)amino]-6-phenylimidazo[1,2-a]pyrazin-3-yl}-N-cyclopropyl-benzamide] — 3.1-fold higher, 19 nM
- Cc1cc(-c2cnc3c(NCC4CCN(C)C4)nc(-c4ccc(F)cc4)cn23)ccc1C(=O)NC1CC1 (centres unmarked) [Example 10-8, N-cyclopropyl-4-[6-(4-fluorophenyl)-8-{[(1-methylpyrrolidin-3-yl)methyl]amino}imidazo [1,2-a]pyrazin-3-yl]-2-methylbenzamide] — 19-fold higher, 119 nM
- Cn1cc(CNc2nc(-c3ccccc3)cn3c(-c4ccc(C(=O)NC5CC5)cc4)cnc23)cn1 [Example 2-56, N-cyclopropyl-4-(8-{[(1-methyl-1H-pyrazol-4-yl)methyl]amino}-6-phenylimidazo[1,2-a]pyrazin-3-yl)benzamide] — 4.8-fold lower, 1.3 nM
- NS(=O)(=O)c1ccc(CNc2nc(-c3ccccc3)cn3c(-c4ccc(C(=O)NC5CC5)cc4)cnc23)cc1 [Example 2-26, N-cyclopropyl-4-{6-phenyl-8-[(4-sulfamoylbenzyl)amino]imidazo[1,2-a]pyrazin-3-yl}benzamide] — within 1.5-fold, 5.6 nM
- CC(C)CNc1nc(-c2ccc(N(C)C)cc2)cn2c(-c3ccc(C(=O)NC4CC4)c(Cl)c3)cnc12 [Example 1-94, 2-chloro-N-cyclopropyl-4-{6-[4-(dimethylamino)phenyl]-8-[(2-methyl-propyl)amino]imidazo [1,2-a]pyrazin-3-yl} benzamide] — 3.2-fold higher, 19.8 nM
- Cc1cc(-c2cn3c(-c4ccc(C(=O)NC5CC5)cc4)cnc3c(NCC(C)C)n2)cc(C)c1O [Example 1-12, N-cyclopropyl-4-{6-(4-hydroxy-3,5-dimethyl-phenyl)-8-[(2-methyl-propyl)amino]imidazo [1,2-a]pyrazin-3-yl} benzamide] — 1.6-fold lower, 3.8 nM
- CC(C)(O)CNc1nc(-c2ccc(F)cc2)cn2c(-c3ccc(C(=O)NC4CC4)cc3)cnc12 [Example 1-131, N-cyclopropyl-4-{6-(4-fluorophenyl)-8-[(2-hydroxy-2-methylpropyl)amino]imidazo[1,2-a]pyrazin-3-yl}benzamide] — 3.9-fold lower, 1.6 nM
- O=C(NC1CC1)c1ccc(-c2cnc3c(NC[C@H](O)CO)nc(-c4ccccc4)cn23)cc1 [Example 2-82, N-cyclopropyl-4-(8-{[(2S)-2,3-dihydroxypropyl]amino}-6-phenylimidazo[1,2-a]pyrazin-3-yl)benzamide] — within 1.5-fold, 4.4 nM
- Cc1cc(-c2cn3c(-c4ccc(C(=O)NC5CC5)cc4)cnc3c(NCC(C)(C)O)n2)ccc1F [Example 1-135, N-cyclopropyl-4-{6-(4-fluoro-3-methylphenyl)-8-[(2-hydroxy-2-methylpropyl)amino]imidazo [1,2-a]pyrazin-3-yl} benzamide] — within 1.5-fold, 8.4 nM
- CC(C)CNc1nc(-c2cccc3ncccc23)cn2c(-c3ccc(C(=O)NC4CC4)cc3)cnc12 [Example 1-20, N-cyclopropyl-4-{8-[(2-methylpropyl)amino]-6-(quinolin-5-yl)imidazo [1,2-a]pyrazin-3-yl} benzamide] — 6.2-fold lower, 1 nM
- Cn1ccc(CNc2nc(-c3ccccc3)cn3c(-c4ccc(C(=O)NC5CC5)cc4)cnc23)n1 [Example 2-53, N-cyclopropyl-4-(8-{[(1-methyl-1H-pyrazol-3-yl)methyl]amino}-6-phenylimidazo [1,2-a]pyrazin-3-yl)benzamide] — within 1.5-fold, 5.6 nM
- CC(C)(O)CNc1nc(-c2ccccc2CO)cn2c(-c3ccc(C(=O)NC4CC4)c(Cl)c3)cnc12 [Example 1-100, 2-chloro-N-cyclopropyl-4-{6-[2-(hydroxymethyl)phenyl]-8-[(2-hydroxy-2-methylpropyl)amino]imidazo[1,2-a]pyrazin-3-yl}benzamide] — 14-fold higher, 86.5 nM
- CC(C)CNc1nc(-c2cccc(-c3ccccc3)c2)cn2c(-c3ccc(C(=O)NC4CC4)cc3)cnc12 [Example 1-69, 4-{6-(biphenyl-3-yl)-8-[(2-methylpropyl)amino]imidazo[1,2-a]pyrazin-3-yl}-N-cyclopropyl-benzamide] — 3.2-fold higher, 19.9 nM
- CC(C)CNc1nc(-c2cccc(S(N)(=O)=O)c2)cn2c(-c3ccc(C(=O)NC4CC4)cc3)cnc12 [Example 1-129, N-cyclopropyl-4-[8-(isobutylamino)-6-(3-sulfamoylphenyl)imidazo [1,2-a]pyrazin-3-yl] benzamide] — 3.3-fold lower, 1.9 nM
- CNC(=O)c1ccc(-c2cn3c(-c4ccc(C(=O)NC5CC5)cc4)cnc3c(NCC(C)C)n2)cc1 [Example 1-31, 4-{3-[4-(cyclopropyl-carbamoyl)phenyl]-8-[(2-methylpropyl)amino]imidazo[1,2-a]pyrazin-6-yl}-N-methylbenzamide] — 4.8-fold lower, 1.3 nM
- O=C(NC1CC1)c1ccc(-c2cnc3c(NCc4ccc(OC(F)(F)F)cc4)nc(-c4ccccc4)cn23)cc1 [Example 2-22, N-cyclopropyl-4-(6-phenyl-8-{[4-(trifluoromethoxy)benzyl]amino}imidazo[1,2-a]pyrazin-3-yl)benzamide] — 35-fold higher, 217 nM
- Cc1cc(-c2cnc3c(NCCC4CC4)nc(-c4ccc(F)cc4)cn23)ccc1C(=O)NC1CC1 [Example 10-10, N-cyclopropyl-4-{8-[(2-cyclopropylethyl)amino]-6-(4-fluorophenyl)imidazo [1,2-a]pyrazin-3-yl}-2-methylbenzamide] — 2.7-fold higher, 16.6 nM
- CCN(CC)CCCCNc1nc(-c2ccccc2)cn2c(-c3ccc(C(=O)NC4CC4)cc3)cnc12 [Example 2-37, N-cyclopropyl-4-(8-{[4-(diethylamino)butyl]amino}-6-phenylimidazo[1,2-a]pyrazin-3-yl)benzamide] — 2.3-fold higher, 14.1 nM
- COc1ccc(Cl)cc1-c1cn2c(-c3ccc(C(=O)NC4CC4)cc3)cnc2c(NCC(C)C)n1 [Example 1-71, 4-{6-(5-chloro-2-methoxy-phenyl)-8-[(2-methyl-propyl)amino]imidazo [1,2-a]pyrazin-3-yl}-N-cyclopropylbenzamide] — 5.8-fold higher, 35.9 nM
- CCOC(C)CNc1nc(-c2ccccc2)cn2c(-c3ccc(C(=O)NC4CC4)cc3)cnc12 (centres unmarked) [Example 2-57, N-cyclopropyl-4-{8-[(2-ethoxypropyl)amino]-6-phenylimidazo[1,2-a]pyrazin-3-yl}benzamide] — 2.7-fold lower, 2.3 nM
- O=C(NC1CC1)c1ccc(-c2cnc3c(NCC(F)(F)F)nc(-c4ccccc4)cn23)cc1 [Example 2-85, N-cyclopropyl-4-{6-phenyl-8-[(2,2,2-trifluoroethyl)amino]imidazo[1,2-a]pyrazin-3-yl}benzamide] — 2.2-fold lower, 2.8 nM
- O=C(NC1CC1)c1ccc(-c2cnc3c(NCCCO)nc(-c4ccccc4)cn23)cc1 [Example 2-17, N-cyclopropyl-4-{8-[(3-hydroxypropyl)amino]-6-phenylimidazo[1,2-a]pyrazin-3-yl}benzamide] — 3.9-fold lower, 1.6 nM
- CC(C)CNc1nc(-c2cccc(CO)c2)cn2c(-c3ccc(C(=O)NC4CC4)cc3)cnc12 [Example 1-5, N-cyclopropyl-4-{6-[3-(hydroxymethyl)phenyl]-8-[(2-methylpropyl)amino]imidazo[1,2-a]pyrazin-3-yl}benzamide] — 4.4-fold lower, 1.4 nM
